Measured values taken from article PMC6747274, “Multifunctional Peptides from Spanish Dry-Cured Pork Ham: Endothelial Responses and Molecular Modeling Studies” (International Journal of Molecular Sciences, 2019).
Where no end group is shown, it is not given here.

What was measured:
[1] = tested on: eNOS mRNA, EA.hy926 cells; experiment: eNOS mRNA expression by RT-PCR in EA.hy926 cells; assay type: cell-based, human; conditions: 300 µM peptide 16 h, then 100 ng/mL TNF-α 6 h; p = 0.0003 (BP1), 0.04 (BP2)
Method: EA.hy926 cells, the hybrid human umbilical vein endothelial cell line, were obtained from the American Type Culture Collection (ATCC® CRL2922™, Rockville, MD, USA). Cells were cultured in high glucose Dulbecco’s Modified Eagle’s Medium (DMEM), containing 10% heat-inactivated fetal bovine serum (FBS, Biowest, Riverside, CA, USA) and 50 U/mL of penicillin and 50 µg/mL streptomycin (Sigma Aldrich Chemical Co., Saint Louis, MO, USA). Cells were grown in 5% CO2 in a humidified air incubator at 37 °C. Subculture was performed when 90% confluence was reached.
(§1) EA.hy926 were seeded in six-well plates at 0.25 × 10^6 cells/well in DMEM supplemented with 5% FBS. Cells were treated with 300 µM of each peptide for 16 h. Then, 100 ng/mL TNF-α or 300 µM H2O2 were added for an additional 6 h or 24 h, respectively.
Total RNA was extracted from EA.hy926 cells using 300 µL Trisure™ (Bioline, Taunton, MA, USA) reagent and Direct-zol™ RNA MiniPrep (Zymo Research Irvine, Irvine, CA, USA) according to the manufacturer’s protocol. Total RNA was reverse-transcribed into complementary DNA (Sensifast cDNATM Synthesis kit, Bioline, Taunton, MA, USA). The mRNA levels of the target genes were quantified by RT-PCR using SensiFAST SYBER Hi-ROX Kit (Bioline, Taunton, MA, USA) with StepOnePlus Real-Time PCR System (Applied Biosystems, Foster City, CA, USA). Briefly, 5 µL of 1:5 diluted cDNA was added to the qPCR reaction containing 10 μL 2X SensiFAST Mix and 400 nM of each primer in a total volume of 20 μL.
Specific and validated primers for human glyceraldehyde-3-phosphate dehydrogenase (GADPH), intercellular adhesion marker-1 (ICAM-1), vascular cell adhesion marker-1 (VCAM-1), endothelial nitric oxide synthase (eNOS), interleukin 6 (IL-6), catalase, SOD (Super Oxide Dismutase), NADPH (Nicotinamide Adenine Dinucleotide Phosphate oxidase) and Bax (proapoptosis regulator) genes were used (Sigma-Aldrich Chemical Co., Saint Louis, MO, USA). […]
The relative quantification of gene expression was determined by the comparative fold change […] method. […]

EA.hy926 cells = experiment: Annexin V / propidium iodide apoptosis and necrosis by FACS; assay type: cell-based, human; conditions: preincubation with 300 µM peptide, then 300 µM H2O2; three independent experiments, mean ± SD; NS vs H2O2 alone
Method: as §1
ApoScreen Annexin V Apoptosis Kit-FITC (Southern Biotech, Birmingham, AL, USA) was used to detect the apoptosis rate. After the co-incubation of synthetic peptides and 300 µM H2O2, 0.4 × 10^6 cells were detached and washed in cold PBS, then resuspended in 100 µL Annexin V binding buffer and treated following the manufacturer’s protocol. Annexin V-fluorescein isothiocyanate (FITC) binding was assessed in FL1 channel simultaneously with propidium iodide (FL2 channel). This test discriminates among intact cells (FITC−/PI−), apoptotic cells (FITC+/PI−), and necrotic cells (FITC+/PI+). Assays were performed in triplicate (Table S1).

Substance	eNOS mRNA expression vs TNF-α stimulated cells [1]	Apoptosis (AnV+/PI-), % cells (EA.hy926 cells) [%]	Necrosis (AnV+/PI+), % cells (EA.hy926 cells) [%]
KAAAATP [BP2]	recovered	14.47 ± 2.42	19.58 ± 0.18
AAATP [BP4]	–	12.16 ± 1.86	18.42 ± 6.34
